Laboratory results reported in patent publication US20190336583A1, “COMPOSITIONS AND METHODS FOR TREATING IRON OVERLOAD” (priority 2017, published 2019).

Key:
serum iron levels [1] = experiment: Serum iron levels in expanded acute study in Sprague Dawley rats (Example 4)
Description: A study was designed to evaluate doses of 5, 25, and 50 mg/kg of hepcidin (human equivalent dose of 0.8, 4, 8 mg/kg, respectively), delivered SC to Sprague Dawley rats (n=9/sex/group).

serum iron levels [2] = experiment: Effect of 1, 5, 10 and 50 mg subcutaneous hepcidin on serum iron levels in normal rats (Example 3); format: in vivo
Description: A study was designed to evaluate doses of 1, 5, 10, and 50 mg of hepcidin delivered subcutaneously and their effect on serum iron levels in normal rats (n=7/group).

serum iron levels [3] = experiment: Effect of 50, 100 and 200 μg subcutaneous hepcidin on serum iron levels in mice (Example 2); format: in vivo; details: for serum iron levels compared to vehicle: p<0.01
Description: Conversely, 50 μg and 100 μg doses were elevated (p<0.01) compared to the vehicle at 24 hours post dose. The elevated levels of serum iron could be due to the system's reaction to the clearance of hepcidin. […] Mortality was likely related to the stress of the blood collection. Serum iron levels normalized 72 hours post dose.

[4] = normal rats, any dose level
[5] = Expanded acute toxicity study (NOAEL), single subcutaneous dose in dogs (Example 4); details: dog, in vivo
Description: (§1) Hepcidin was evaluated in two expanded, acute studies in rats and dogs. These studies were conducted to determine the no-observed adverse effect level (NOAEL). The NOAEL was determined to be 5 mg/kg/day in dogs due to various clinical and histopathological observations.

[6] = Expanded acute toxicity study (NOAEL) in Sprague Dawley rats (Example 4); details: rat, in vivo
Description: as §1

serum iron levels [7] = experiment: Effect of subcutaneous hepcidin on serum iron levels in mice (Example 1); format: in vivo; details: 50 μg dose subcutaneously, p<0.05
Description: A study was designed to evaluate the effect of subcutaneous doses of hepcidin on serum iron levels in mice (n=6-7/group).

Compound: CC[C@H](C)[C@@H]1NC(=O)[C@@H](NC(=O)[C@@H](NC(=O)[C@@H]2CCCN2C(=O)[C@H](Cc2ccccc2)NC(=O)[C@H](Cc2c[nH]cn2)NC(=O)[C@@H](NC(=O)[C@@H](N)CC(=O)O)[C@@H](C)O)[C@@H](C)CC)CSSC[C@@H](C(=O)N[C@@H](CCCCN)C(=O)N[C@H](C(=O)O)[C@@H](C)O)NC(=O)[C@@H]2CSSC[C@@H]3NC(=O)[C@@H]4CSSC[C@H](NC(=O)[C@H](Cc5ccccc5)NC1=O)C(=O)N[C@@H](CSSC[C@H](NC(=O)[C@H](CCCCN)NC(=O)[C@H](CO)NC(=O)[C@H](CCCNC(=N)N)NC(=O)[C@H](Cc1c[nH]cn1)NC3=O)C(=O)NCC(=O)N[C@@H](CCSC)C(=O)N2)C(=O)NCC(=O)N4 [hepcidin]
- average serum iron levels compared to vehicle and pre-dose levels (serum iron levels [1]; Sprague Dawley rats, 5, 25 and 50 mg/kg SC, all doses): significantly decreased
- time of lowest serum iron level (serum iron levels [1]; Sprague Dawley rats, post dose, all three doses): 4 h
- time at which serum iron levels returned to pre-dose levels (serum iron levels [2]; normal rats, 5 mg dose, post dose): 48 h
- return of serum iron levels to pre-dose levels (serum iron levels [2]; normal rats, 10 mg and 50 mg dose groups, 72 hours post dose): did not return to pre-dose levels
- effect on serum iron levels (serum iron levels [2]; normal rats, 50 mg, at 72 hours): still demonstrated an effect
- serum iron levels (serum iron levels [2]; normal rats, 1, 5, 10 and 50 mg subcutaneously, all dose levels): significant decrease in serum iron levels
- time of lowest serum iron concentrations (serum iron levels [2]; normal rats, post dose, all three doses): 4 h
- serum iron levels compared to vehicle (serum iron levels [3]; mice, 50 μg and 100 μg doses, 24 hours post dose): elevated
- serum iron levels compared to vehicle (serum iron levels [3]; mice, 50, 100 and 200 μg subcutaneously (all three doses), 4 hours post dose): significant decrease in serum iron levels
- serum iron levels (serum iron levels [3]; mice, 72 hours post dose): normalized
- mortality (serum iron levels [3]; mice, following the 4-hour blood collection, likely related to the stress of the blood collection): One mouse died
- lethargy [4]: No lethargy was observed
- administration site microscopic findings, Day 15: cystic space [5]: cystic space
- administration site microscopic findings, Day 15: fibrosis [5]: fibrosis
- other adverse reactions [5]: hunched posture, soft feces, gross pathology finding of “thick,” and subcutaneous fibrosis, mixed cell infiltration, and cysts present at recovery period
- administration site microscopic findings, Day 4 ([5]; 25 mg/kg): mixed cell infiltration in the administration site
- toxicokinetic (TK) effect, male vs female [6]: comparable for both sexes
- decrease in serum iron levels compared to vehicle (average) (serum iron levels [7]; 4 hours post dose): 40%
- decrease in serum iron levels compared to vehicle (average) (serum iron levels [7]; 24 hours post dose): 15%
